Test results published in patent US20050245563A1 (Millennium Pharmaceuticals, Inc., priority 2003, published 2005).

These compounds were tested against T1, human Chk1 (GST-Chk1) (Homo sapiens, UniProt O14757) (assay: Chk1 DELFIA kinase assay (2 nM GST-Chk1, 600 μM ATP)). Conditions: Biotin-GLYRSPSMPEN-amide substrate.
T1 construct: made in house; host or cells: insect cells (baculovirus, Bac-to-Bac)
T1 sequence (O14757 1-476): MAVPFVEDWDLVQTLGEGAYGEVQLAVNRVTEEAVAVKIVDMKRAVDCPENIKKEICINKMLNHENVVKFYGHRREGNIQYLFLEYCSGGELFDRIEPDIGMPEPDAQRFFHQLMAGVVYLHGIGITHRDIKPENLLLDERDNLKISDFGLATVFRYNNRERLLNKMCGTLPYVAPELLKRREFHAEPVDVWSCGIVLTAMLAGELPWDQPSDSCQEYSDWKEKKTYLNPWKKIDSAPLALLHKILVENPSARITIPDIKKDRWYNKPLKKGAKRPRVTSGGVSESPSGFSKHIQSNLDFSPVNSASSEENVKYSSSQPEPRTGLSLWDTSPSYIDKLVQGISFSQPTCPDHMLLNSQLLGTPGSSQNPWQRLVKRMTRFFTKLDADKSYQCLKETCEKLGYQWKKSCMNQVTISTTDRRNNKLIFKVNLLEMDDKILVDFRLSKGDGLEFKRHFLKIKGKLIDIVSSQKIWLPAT
Type: biochemical
In short: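 Enzyme is N-terminal GST-Chk1 from baculovirus/insect cells, assayed with 1 μM biotin-GLYRSPSMPEN-amide in pH 7.5 Tris buffer, 4% DMSO and 10 mM MgCl2 for 50 min at room temperature. EDTA-stopped reactions were captured on NeutrAvidin. Phospho-peptide was detected by anti-phospho-Ser216-Cdc25c antibody with europium-labeled secondary and time-resolved fluorescence.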

Row | IC50 [nM] | Structure (SMILES)
1 | < 1000 | Cc1[nH]nc2c1c(=O)n(CCCN)c1ccc(-c3ccc(C#N)cc3)cc21 [Example 306, 4-[5-(3-Amino-propyl)-3-methyl-4-oxo-4,5-dihydro-2H-pyrazolo[4,3-c]quinolin-8-yl]-benzonitrile]
2 | < 1000 | COC(=O)/C(=C/c1ccc2c(c1)c1n[nH]c(C)c1c(=O)n2CCCN)NC(C)=O [Example 270, 2-Acetylamino-3-[5-(3-amino-propyl)-3-methyl-4-oxo-4,5-dihydro-2H-pyrazolo[4,3-c]quinolin-8-yl]-acrylic acid methyl ester]
3 | < 1000 | Cc1[nH]nc2c1c(=O)n(CCCN)c1ccc(C#CCn3ccnc3)cc21 [Example 290, 5-(3-Amino-propyl)-8-(3-imidazol-1-yl-prop-1-ynyl]-3-methyl-2,5-dihydro-pyrazolo[4,3-c]quinolin-4-one]
4 | < 1000 | Cc1[nH]nc2c1c(=O)n(CCCN)c1ccc(C#Cc3cccnc3)cc21 [Example 277]
5 | < 1000 | Cc1[nH]nc2c1c(=O)n(CCCN)c1cc(I)ccc21 [Example 339, 5-(3-Aminopropyl)-7-iodo-3-methyl-2,5-dihydro-pyrazolo[4,3-c]quinolin4-one]
6 | < 1000 | CCCNCC(O)CCn1c(=O)c2c(C)[nH]nc2c2cc(Cl)ccc21 (stereo not drawn) [Example 250, 8-Chloro-5-(3-hydroxy-4-propylamino-butyl)-3-methyl-2,5-dihydro-pyrazolo[4,3-c]quinolin-4-one]
7 | < 1000 | NCCCn1c(=O)c2c(C3CCCC3)[nH]nc2c2cc(Cl)ccc21 [Example 365, 5-(3-Amino-propyl)-8-chloro-3-cyclopentyl-2,5-dihydro-pyrazolo[4,3-c]quinolin4-one]
8 | < 1000 | NCCCn1c(=O)c2c(C3CCOC3)[nH]nc2c2cc(Cl)ccc21 (stereo not drawn) [Example 327, 5-(3-Amino-propyl)-8-chloro-3-(tetrahydro-furan-3-yl)-2,5-dihydro-pyrazolo[4,3-c]quinolin-4-one]
9 | < 1000 | Cc1[nH]nc2c1c(=O)n(CCCN)c1cc(C(=O)NCCCCN(C)C)ccc21 [Example 338]
10 | < 1000 | C#Cc1ccc2c(c1)c1n[nH]c(CCOC)c1c(=O)n2CCCN [Example 292, 5-(3-Amino-propyl)-8-ethynyl-3-(2-methoxy-ethyl)-2,5-dihydro-pyrazolo[4,3-c]quinolin-4-one]
11 | < 1000 | CCOc1ccc2c(c1)c1n[nH]c(C)c1c(=O)n2CCCN [Example 256, 5-(3-Amino-propyl)-8-ethoxy-3methyl-2,5-dihydro-pyrazolo[4,3-c]quinolin-4-one]
12 | < 1000 | CNCCCn1c(=O)c2c(C)[nH]nc2c2cc(C)ccc21 [Example 235, 3,8-Dimethyl-5-(3-methylamino-propyl)-2,5-dihydro-pyrazolo[4,3-c]quinolin-4-one]
13 | < 1000 | Cc1[nH]nc2c1c(=O)n(CC[C@H]1CCCCN1)c1ccc(Cl)cc21 [Compound 213, 8-Chloro-3-methyl-5-(2R-piperidin-2-yl-ethyl)-2,5-dihydro-pyrazolo[4,3-c]quinolin-4-one]
14 | < 1000 | Cc1[nH]nc2c1c(=O)n(CCCN)c1ccc(NC(=O)[C@@H]3CCCN3)cc21 [Example 262, Pyrrolidine-2S-carboxylic acid [5-(3-amino-propyl)-3-methyl-4-oxo-4,5-dihydro-2H-pyrazolo[4,3-c]quinolin-8-yl]-amide]
15 | < 1000 | Cc1[nH]nc2c1c(=O)n(CCCN)c1ccc(-c3ccncc3)cc21 [Compound 358, 5-(3-Amino-propyl)-3-methyl-8-pyridin-4-yl-2,5-dihydro-pyrazolo[4,3-c]quinolin-4-one]
16 | 1000 to 10000 | Cc1[nH]nc2c1c(=O)n(C)c1c(CCCN)cc(Cl)cc21 [Compound 343, 6-(3-Amino-propyl)-8-chloro-3,5-dimethyl-2,5-dihydro-pyrazolo[4,3-c]quinolin-4-one]
17 | < 1000 | Cc1[nH]nc2c1c(=O)n(C)c1c(C#CCCN)cc(Cl)cc21 [Compound 345, 6-(4-amino-but-1-ynyl)-8-chloro-3,5-dimethyl-2,5-dihydro-pyrazolo[4,3-c]quinolin-4-one]
18 | < 1000 | Cc1[nH]nc2c1c(=O)n(CCCN)c1cc(C(=O)NCCN(C)C)ccc21 [Example 335, 5-(3-Amino-propyl)-3-methyl-4-oxo-4,5-dihydro-2H-pyrazolo[4,3-c]quinoline-7-carboxylic acid (2-dimethylamino-ethyl)-amide]
19 | < 1000 | Cc1[nH]nc2c1c(=O)n(CCCN)c1c(N)cc(Cl)cc21 [Compound 348, 6-Amino-5-(3-amino-propyl)-8-chloro-3-methyl-2,5-dihydro-pyrazolo[4,3-c]quinolin4-one]
20 | < 1000 | CNCC(O)CCn1c(=O)c2c(C)[nH]nc2c2cc(Cl)ccc21 (stereo not drawn) [Example 249, 8-Chloro-5-(3-hydroxy-4-methylamino-butyl)-3-methyl-2,5-dihydro-pyrazolo[4,3-c]quinolin-4-one]
21 | < 1000 | CNCC(O)Cn1c(=O)c2c(C)[nH]nc2c2cc(Cl)ccc21 (stereo not drawn) [Example 247, 8-Chloro-5-(2-hydroxy-3-methylamino-propyl)-3-methyl-2,5-dihydro-pyrazolo[4,3-c]quinolin-4-one]
22 | < 1000 | Cc1[nH]nc2c1c(=O)n(CC(=O)C1CCCN1)c1ccc(Cl)cc21 (stereo not drawn) [Example 230, 8-Chloro-3-methyl-5-(2-oxo-2-pyrrolidin-2-yl-ethyl)-2,5-dihydro-pyrazolo[4,3-c]quinolin-4-one]
23 | < 1000 | Cc1[nH]nc2c1c(=O)n(CCC(C)(C)N)c1ccc(Cl)cc21 [Example 229, 5-(3-Amino-3-methyl-butyl)-8-chloro-3-methyl-2,5-dihydro-pyrazolo[4,3-c]quinolin-4-one]
24 | < 1000 | Cc1[nH]nc2c1c(=O)n(CCCN)c1ccc(-c3ccc(N(C)C)cc3)cc21 [Example 307, 5-(3-Amino-propyl)-8-(4-dimethylamino-phenyl)-3-methyl-2,5-dihydro-pyrazolo [4,3-c]quinolin-4-one]
25 | < 1000 | Cc1[nH]nc2c1c(=O)n(CCCN)c1ccc(F)cc21 [Compound 203, 5-(3-Amino-propyl)-8-fluoro-3-methyl-2,5-dihydro-pyrazolo[4,3-c]quinolin-4-one]
26 | < 1000 | Cc1[nH]nc2c1c(=O)n(CCCNCc1cccs1)c1ccc(Cl)cc21 [Example 242, 8-Chloro-3-methyl-5-{3-[(thiophen-2-ylmethyl)-amino]-propyl}-2,5-dihydro-pyrazolo[4,3-c]quinolin-4-one]
27 | < 1000 | CCc1[nH]nc2c1c(=O)n(CCCN)c1ccc(C#CCN3CCCC3)cc21 [Example 329, 5-(3-Amino-propyl)-3-ethyl-8-(3-pyrrolidin-1-yl-prop-1-ynyl)-2,5-dihydro-pyrazolo[4,3-c]quinolin-4-one]
28 | < 1000 | Cc1[nH]nc2c1c(=O)n(CCCN)c1ccc(OCCCN)cc21 [Example 255, 8-(3-Amino-propoxy)-5-(3-amino-propyl)-3-methyl-2,5-dihydro-pyrazolo[4,3-c]quinolin-4-one]
29 | < 1000 | CC#Cc1ccc2c(c1)c1n[nH]c(C)c1c(=O)n2CCCN [Example 283, 5-(3-Amino-propyl)-3-methyl 8-prop-1-ynyl-2,5-dihydro-pyrazolo[4,3-c]quinolin-4-one]

Row | Structure (SMILES) | IC50 [nM]
30 | CCCCOCCc1[nH]nc2c1c(=O)n(CCCN)c1ccc(Cl)cc21 [Example 322, 5-(3-Amino-propyl)-3-(2-butoxy-ethyl)-8-chloro-2,5-dihydro-pyrazolo[4,3-c]quinolin-4-one] | < 1000
